Source: ChEMBL document CHEMBL4033619, “Autophagy antagonizes apoptosis induced by flavan enantiomers from Daphne giraldii in hepatic carcinoma cells in vitro” (Eur J Med Chem, 2017)
pIC50: −log10 of the molar value. Activity calls are given as the source filed them. No cut-off for these calls is given here.

Assays:
[1] = tested on: MCF7; assay: Growth inhibition of human MCF7 cells after 48 hrs by MTT assay; assay type: functional, cell-based
[2] = tested on: A549; assay: Growth inhibition of human A549 cells after 48 hrs by MTT assay; assay type: functional, cell-based
[3] = tested on: Hep 3B2; assay: Cytotoxicity against human Hep3B cells by MTT assay; assay type: functional, cell-based
[4] = tested on: Hep 3B2; assay: Growth inhibition of human Hep3B cells after 48 hrs by MTT assay; assay type: functional, cell-based
[5] = tested on: HepG2; assay: Cytotoxicity against human HepG2 cells by MTT assay; assay type: functional, cell-based
[6] = tested on: HepG2; assay: Growth inhibition of human HepG2 cells after 48 hrs by MTT assay; assay type: functional, cell-based
[7] = tested on: A549; assay: Cytotoxicity against human A549 cells by MTT assay; assay type: functional, cell-based
[8] = tested on: MCF7; assay: Cytotoxicity against human MCF7 cells by MTT assay; assay type: functional, cell-based
[9] = tested on: Hep 3B2; assay: Induction of apoptosis in human Hep3B cells assessed as increase in caspase 9 level at 30 uM in presence of autophagy inhibitor bafilomycin A1 by Western blot analysis; assay type: functional, cell-based
[10] = tested on: Hep 3B2; assay: Induction of apoptosis in human Hep3B cells assessed as increase in Bax level at 30 uM in presence of autophagy inhibitor bafilomycin A1 by Western blot analysis; assay type: functional, cell-based
[11] = tested on: Hep 3B2; assay: Effect on AMPK expression in human Hep3B cells at 15 to 60 uM by Western blot analysis; assay type: functional, cell-based
[12] = tested on: Hep 3B2; assay: Induction of apoptosis in human Hep3B cells assessed as increase in FADD level at 30 uM in presence of autophagy inhibitor bafilomycin A1 by Western blot analysis; assay type: functional, cell-based
[13] = tested on: Hep 3B2; assay: Induction of apoptosis in human Hep3B cells assessed as chromatin condensation at 30 uM after 48 hrs by Hoechst 33258 staining-based fluorescence microscopy; assay type: functional, cell-based
[14] = tested on: Hep 3B2; assay: Induction of autophagy in human Hep3B cells at 30 uM after 48 hrs by MDC staining-based fluorescence microscopic method; assay type: functional, cell-based
[15] = tested on: Hep 3B2; assay: Induction of apoptosis in human Hep3B cells assessed as increase in Bax level by Western blot analysis; assay type: functional, cell-based
[16] = tested on: Hep 3B2; assay: Induction of apoptosis in human Hep3B cells assessed as decrease in PARP level at 15 to 60 uM by Western blot analysis; assay type: functional, cell-based
[17] = target: T1, AMP-activated protein kinase, AMPK (Homo sapiens) (UniProt P54646+O43741+P54619+Q9UGJ0+Q9Y478+Q13131+Q9UGI9); assay: Increase in AMPK phosphorylation at Thr172 in human Hep3B cells at 15 to 60 uM by Western blot analysis; assay type: cell-based
[18] = tested on: Hep 3B2; assay: Induction of apoptosis in human Hep3B cells assessed as cell shrinkage at 30 uM after 48 hrs by phase contrast microscopic analysis; assay type: functional, cell-based
[19] = tested on: Hep 3B2; assay: Induction of apoptosis in human Hep3B cells assessed as increase in FADD level by Western blot analysis; assay type: functional, cell-based
[20] = tested on: Hep 3B2; assay: Induction of apoptosis in human Hep3B cells assessed as effect on cleaved PARP level at 15 to 60 uM by Western blot analysis; assay type: functional, cell-based
[21] = tested on: Hep 3B2; assay: Induction of autophagy in human Hep3B cells assessed as increase in conversion of LC3-1 to LC3-2 at 10 to 60 uM by Western blot analysis; assay type: functional, cell-based
[22] = tested on: Hep 3B2; assay: Induction of apoptosis in human Hep3B cells assessed as nuclear fragmentaion at 30 uM after 48 hrs by Hoechst 33258 staining-based fluorescence microscopy; assay type: functional, cell-based
[23] = tested on: Hep 3B2; assay: Induction of apoptosis in human Hep3B cells assessed as chromatin condensation at 30 uM in presence of autophagy inhibitor bafilomycin A1 by Hoechst 33258 staining-based fluorescence microscopy; assay type: functional, cell-based
[24] = tested on: Hep 3B2; assay: Cytotoxicity against human Hep3B cells assessed as reduction in cell growth at 30 uM in presence of autophagy inhibitor bafilomycin A1 by MTT assay; assay type: functional, cell-based
[25] = tested on: Hep 3B2; assay: Down regulation of AMPK expression in human Hep3B cells at 30 uM in presence of autophagy inhibitor bafilomycin A1 by Western blot analysis; assay type: functional, cell-based
[26] = tested on: Hep 3B2; assay: Induction of apoptosis in human Hep3B cells assessed as increase in caspase 7 level at 30 uM in presence of autophagy inhibitor bafilomycin A1 by Western blot analysis; assay type: functional, cell-based
[27] = target: T1, AMP-activated protein kinase, AMPK (Homo sapiens); assay: Increase in AMPK phosphorylation at Thr172 in human Hep3B cells at 30 uM in presence of autophagy inhibitor bafilomycin A1 by Western blot analysis; assay type: cell-based
[28] = tested on: Hep 3B2; assay: Induction of apoptosis in human Hep3B cells assessed as membrane blebbing at 30 uM after 48 hrs by phase contrast microscopic analysis; assay type: functional, cell-based
[29] = tested on: Hep 3B2; assay: Induction of apoptosis in human Hep3B cells assessed as increase in caspase 8 level by Western blot analysis; assay type: functional, cell-based
[30] = tested on: Hep 3B2; assay: Induction of autophagy in human Hep3B cells assessed as decrease in p62 level at 15 to 60 uM by Western blot analysis; assay type: functional, cell-based
[31] = tested on: Hep 3B2; assay: Induction of apoptosis in human Hep3B cells assessed as decrease in PARP level at 30 uM in presence of autophagy inhibitor bafilomycin A1 by Western blot analysis; assay type: functional, cell-based
[32] = tested on: Hep 3B2; assay: Induction of apoptosis in human Hep3B cells assessed as increase in caspase 7 level by Western blot analysis; assay type: functional, cell-based
[33] = tested on: Hep 3B2; assay: Induction of apoptosis in human Hep3B cells assessed as nuclear fragmentation at 30 uM in presence of autophagy inhibitor bafilomycin A1 by Hoechst 33258 staining-based fluorescence microscopy; assay type: functional, cell-based
[34] = tested on: Hep 3B2; assay: Induction of apoptosis in human Hep3B cells assessed as increase in cleaved PARP level at 30 uM in presence of autophagy inhibitor bafilomycin A1 by Western blot analysis; assay type: functional, cell-based
[35] = tested on: Hep 3B2; assay: Induction of apoptosis in human Hep3B cells assessed as increase in caspase 9 level by Western blot analysis; assay type: functional, cell-based
[36] = tested on: Hep 3B2; assay: Induction of apoptosis in human Hep3B cells assessed as increase in caspase 8 level at 30 uM in presence of autophagy inhibitor bafilomycin A1 by Western blot analysis; assay type: functional, cell-based

With `CC1(C)CCc2c([C@H]3CCc4ccc(O)cc4O3)ccc(O)c2O1` the “growth inhibition (GI)” value [1] was “Dose-dependent effect”, the “growth inhibition (GI)” value [2] was “Dose-dependent effect” and the pIC50 [3] was 4.38. For the same molecule, the “growth inhibition (GI)” value [4] was “Dose-dependent effect”, the pIC50 [5] was under 4.00 and the “growth inhibition (GI)” value [6] was “Dose-dependent effect”. It also gave a pIC50 [7] of under 4.00 and a pIC50 [8] of under 4.00.
For `CC1(C)C=Cc2c([C@H]3CCc4ccc(O)cc4O3)ccc(O)c2O1`, the “growth inhibition (GI)” value [1] was “Dose-dependent effect”, the “growth inhibition (GI)” value [2] was “Dose-dependent effect” and the pIC50 [3] was 4.20. For the same molecule, the “growth inhibition (GI)” value [4] was “Dose-dependent effect”, the pIC50 [5] was under 4.00 and the “growth inhibition (GI)” value [6] was “Dose-dependent effect”. For the same molecule, the pIC50 [7] was under 4.00 and the pIC50 [8] was under 4.00.
In the case of `CC1(C)CCc2c(C3CCc4ccc(O)cc4O3)ccc(O)c2O1` (racemic), the “growth inhibition (GI)” value [1] was “Dose-dependent effect”, the “growth inhibition (GI)” value [2] was “Dose-dependent effect” and the pIC50 [3] was 4.29. The “growth inhibition (GI)” value [4] was “Dose-dependent effect”, the pIC50 [5] was under 4.00 and the “growth inhibition (GI)” value [6] was “Dose-dependent effect”. It also gave a pIC50 [7] of under 4.00 and a pIC50 [8] of under 4.00.
In the case of `CC(C)=CCc1c([C@H]2CCc3ccc(O)cc3O2)cc2c(c1O)OC(C)(C)C=C2`, the Activity [9] was “Active”, the Activity [10] was “Active” and the “growth inhibition (GI)” value [1] was “Dose-dependent effect”. For the same molecule, the Activity [11] was “inactive”, the Activity [12] was “Active” and the “growth inhibition (GI)” value [2] was “Dose-dependent effect”. The Activity [13] was “Active”, the Activity [14] was “Active” and the Activity [15] was “Dose-dependent effect”. For the same molecule, the pIC50 [3] was 4.52, the “growth inhibition (GI)” value [4] was “Dose-dependent effect” and the pIC50 [5] was 4.19. For the same molecule, the Activity [16] was “Active”, the Activity [17] was “Active” and the Activity [18] was “Active”. The Activity [19] was “Dose-dependent effect”, the Activity [20] was “Active” and the Activity [21] was “Active”. For the same molecule, the Activity [22] was “Active”, the Activity [23] was “Active” and the Activity [24] was “Active”. The “growth inhibition (GI)” value [6] was “Dose-dependent effect”, the Activity [25] was “Active” and the Activity [26] was “Active”. The Activity [27] was “Active”, the Activity [28] was “Active” and the pIC50 [7] was under 4.00. For the same molecule, the pIC50 [8] was under 4.00, the Activity [29] was “Dose-dependent effect” and the Activity [30] was “Active”. For the same molecule, the Activity [31] was “Active”, the Activity [32] was “Dose-dependent effect” and the Activity [33] was “Active”. The Activity [34] was “Active”, the Activity [35] was “Dose-dependent effect” and the Activity [36] was “Active”.
In the case of `CC(C)=CCc1c([C@@H]2CCc3ccc(O)cc3O2)cc2c(c1O)OC(C)(C)C=C2` [KAZINOL B], the “growth inhibition (GI)” value [1] was “Dose-dependent effect”, the “growth inhibition (GI)” value [2] was “Dose-dependent effect” and the pIC50 [3] was 4.41. For the same molecule, the “growth inhibition (GI)” value [4] was “Dose-dependent effect”, the pIC50 [5] was 4.23 and the “growth inhibition (GI)” value [6] was “Dose-dependent effect”. For the same molecule, the pIC50 [7] was under 4.00 and the pIC50 [8] was under 4.00.
For `CC1(C)C=Cc2c(C3CCc4ccc(O)cc4O3)ccc(O)c2O1` (racemic), the “growth inhibition (GI)” value [1] was “Dose-dependent effect”, the “growth inhibition (GI)” value [2] was “Dose-dependent effect” and the pIC50 [3] was 4.24. For the same molecule, the “growth inhibition (GI)” value [4] was “Dose-dependent effect”, the pIC50 [5] was 4.03 and the “growth inhibition (GI)” value [6] was “Dose-dependent effect”. The pIC50 [7] was under 4.00 and the pIC50 [8] was under 4.00.
